Experimental data reported in US20250066502A1, “MEDICAMENT FOR TREATMENT AND/OR PREVENTION OF CANCER” (TORAY INDUSTRIES, INC., priority 2021, published 2025).

Key:
Type in all cases: cell-based
[1] = system: human lung cancer cell line A549; experiment: THP-1-mediated antibody-dependent phagocytic activity against A549; conditions: THP-1 coculture 2.5 hours
Experimental: (§1) Specifically, in each combination test group (a romidepsin combination test group, a panobinostat combination test group, and a cisplatin combination test group), the indicated drug used in combination was applied to human cancer cells, and then the cancer cells were cocultured with human monocytic cells (THP-1) in the presence of the anti-CAPRIN-1 antibody, and the antibody-mediated phagocytic activity against the cancer cells by THP-1 was evaluated. […] The concentration of the drug used in combination was set to a concentration that decreased the proliferation rate of the cancer cells by about half at the completion of culture. As a control, a test group without a drug used in combination was established. […] Further, dead cells were stained with propidium iodide (PI) (final concentration: 0.1 μg/mL), followed by the measurement of fluorescence from the cells by flow cytometry. PI-positive dead cells were excluded from analysis. The human monocytic cells THP-1 recognize an antibody bound onto cancer cells and phagocytize the cancer cells. At that time, if the cancer cells have been stained with calcein-AM, the monocytic cells ingesting the cancer cells by phagocytosis also become positive to calcein-AM. Thus, the phagocytic activity in this evaluation system was calculated as the ratio (%) of APC-positive/calcein-AM-positive cells to the whole calcein-AM-positive population.

[2] = system: human prostate cancer cell line DU145; experiment: THP-1-mediated antibody-dependent phagocytic activity against DU145; conditions: THP-1 coculture 2.5 hours
Experimental: as §1

[3] = system: human colon cancer cell line HCT116; experiment: THP-1-mediated antibody-dependent phagocytic activity against HCT116; conditions: panobinostat combination test group (10 nM, 2 days) with anti-CAPRIN-1 antibody, THP-1 coculture 2.5 hours
Experimental: as §1

[4] = system: human breast cancer cell line MDA-MB-231; experiment: THP-1-mediated antibody-dependent phagocytic activity against MDA-MB-231; conditions: panobinostat combination test group (30 nM, 2 days) with anti-CAPRIN-1 antibody, THP-1 coculture 1 hour
Experimental: (§2) Specifically, in each combination test group (a romidepsin combination test group and a panobinostat combination test group), the indicated drug used in combination was applied to human cancer cells, and then the cancer cells were cocultured with human monocytic cells (THP-1) in the presence of the anti-CAPRIN-1 antibody, and the antibody-mediated phagocytic activity against the cancer cells by THP-1 was evaluated. […] As a control, a test group without a drug used in combination was established. […] Further, dead cells were stained with propidium iodide (PI) (final concentration: 0.1 μg/mL), followed by the measurement of fluorescence from the cells by flow cytometry. PI-positive dead cells were excluded from analysis. The human monocytic cells THP-1 recognize an antibody bound onto cancer cells and phagocytize the cancer cells. At that time, if the cancer cells have been stained with calcein-AM, the monocytic cells ingesting the cancer cells by phagocytosis also become positive to calcein-AM. Thus, the phagocytic activity in this evaluation system was calculated as the ratio (%) of APC-positive/calcein-AM-positive cells to the whole calcein-AM-positive population.

[5] = system: human ovarian cancer cell line TOV-21G; experiment: THP-1-mediated antibody-dependent phagocytic activity against TOV-21G; conditions: panobinostat combination test group (30 nM, 2 days) with anti-CAPRIN-1 antibody, THP-1 coculture 1 hour
Experimental: as §2

[6] = system: human bile duct cancer cell line KKU-100; experiment: THP-1-mediated antibody-dependent phagocytic activity against KKU-100; conditions: romidepsin combination test group (2 nM, 2 days) with anti-CAPRIN-1 antibody, THP-1 coculture 1 hour
Experimental: as §2

[7] = system: human uterus cancer cell line MFE-296; experiment: THP-1-mediated antibody-dependent phagocytic activity against MFE-296; conditions: romidepsin combination test group (20 nM, 2 days) with anti-CAPRIN-1 antibody, THP-1 coculture 1 hour
Experimental: as §2

[8] = panobinostat combination test group (10 nM, 2 days) with anti-CAPRIN-1 antibody
[9] = romidepsin combination test group (1 nM, 2 days) with anti-CAPRIN-1 antibody

Structure (SMILES): N.N.[Cl][Pt][Cl] [cisplatin]
- phagocytic activity against cancer cells ([1]; cisplatin combination test group (20 μM, 2 days) with anti-CAPRIN-1 antibody): 13%

Structure (SMILES): Cc1[nH]c2ccccc2c1CCNCc1ccc(/C=C/C(=O)NO)cc1 [panobinostat, (2E)-N-Hydroxy-3-[4-({[2-(2-methyl-TH-indol-3-yl)ethyl]amino}methyl)phenyl]prop-2-enamide]
- phagocytic activity against cancer cells [1, 8]: 15%
- phagocytic activity against cancer cells [2, 8]: 8%
- phagocytic activity against cancer cells [3]: 32%
- phagocytic activity against cancer cells [4]: 41%
- phagocytic activity against cancer cells [5]: 81%

Structure (SMILES): C/C=C1\NC(=O)[C@H]2CSSCC/C=C/[C@H](CC(=O)N[C@H](C(C)C)C(=O)N2)OC(=O)[C@H](C(C)C)NC1=O [romidepsin, (1S,4S,10S,16E,21R)-7-[(2Z)-ethylidene]-4,21-bis(1-methylethyl)-2-oxa-12,13-dithia-5,8,20,23-tetraazabicyclo[8.7.6]tricos-16-ene-3,6,9,19,22-pentone]
- phagocytic activity against cancer cells [1, 9]: 29%
- phagocytic activity against cancer cells [2, 9]: 8%
- phagocytic activity against cancer cells [6]: ≥ 14%
- phagocytic activity against cancer cells [7]: ≥ 27%
